The record followed here is ChEMBL document CHEMBL1268903, “Biologically active biotin derivatives of schweinfurthin F” (Bioorg Med Chem Lett, 2010).

Experiment [1] is described as follows: Cytotoxicity against human NCI60 cells. The experiment is classed as functional.
The test system of the next experiment is SF-295. Nature of the experiment: Cytotoxicity against human SF295 cells. The experiment is classed as functional, cell-based.
The subject of the next experiment is A549. Nature of the experiment: Cytotoxicity against human A549 cells. The experiment is classed as functional, cell-based.

Broadly, the GI50 is the concentration that inhibits growth by half. Turning to `COc1cc(/C=C/c2cc(O)c(CC=C(C)C)c(O)c2)cc2c1O[C@]1(C)CC[C@@H](O)C(C)(C)[C@H]1C2` [SCHWEINFURTHIN F], it took 1000 nM to inhibit growth in experiment [1] by half (GI50). In general, EC50 refers to the midpoint of the concentration-response curve. A high value points to a less potent agent. With `COCOc1cc(/C=C/c2cc3c(c(OC)c2)O[C@]2(C)CC[C@@H](O)C(C)(C)[C@H]2C3)cc(OC)c1C/C=C(\C)C/C=C/C(C)CNC(=O)CCCC[C@H]1SC[C@H]2NC(=O)N[C@H]21` (stereo partly drawn), the concentration for a half-maximal effect (EC50) in the experiment on SF-295 came out at 1100 nM; in the experiment with A549, 5000 nM. As for `COCOc1cc(/C=C/c2cc3c(c(OC)c2)O[C@]2(C)CC[C@@H](O)C(C)(C)[C@H]2C3)cc(OC)c1C/C=C(\C)C/C=C/C(C)COC(=O)CCCC[C@H]1SC[C@H]2NC(=O)N[C@H]21` (stereo partly drawn), the figures for the 50% effective concentration (EC50) in the experiment with SF-295 and with A549 were 2700 nM and greater than 10000 nM, respectively. Compound `CC(C)=CCC/C(C)=C/Cc1c(O)cc(/C=C/c2cc(O)c3c(c2)C[C@@H]2C(C)(C)[C@H](O)[C@H](O)C[C@@]2(C)O3)cc1O` [SCHWEINFURTHIN A] registered a concentration for 50% growth inhibition (GI50) in experiment [1] of 1000 nM. Compound `COc1cc(/C=C/c2cc(O)c(C/C=C(\C)CCC=C(C)C)c(O)c2)cc2c1O[C@]1(C)CC[C@@H](O)C(C)(C)[C@H]1C2` [3-DEOXYSCHWEINFURTHIN B] had a concentration giving a half-maximal response (EC50) in the experiment with A549 of 4900 nM. Also, the GI50 in experiment [1] was determined as 1000 nM.
